Reference: PMC5209718, “Piscidin-1-analogs with double L- and D-lysine residues exhibited different conformations in lipopolysaccharide but comparable anti-endotoxin activities” (Scientific Reports, 2017)
In brackets after ≈: the same amount, converted by molar mass. Where two headings read alike, the source gives them in different places. Residues, ends and D or L forms follow the SMILES beside them.

Tests used:
[1] = tested on: B. subtilis (ATCC 6633); test: microbe, parasite or virus in culture; type: cell-based; details: ATCC 6633
Description: (§1) Piscidin-1 and its analogs were examined for bacterial growth-inhibiting activity in liquid cultures against Gram-positive bacteria including MRSA strains and Gram-negative bacteria (Table 2). […] The therapeutic index is a parameter that signify the specificity or selectivity of antimicrobial agents towards microorganisms over mammalian cells.
(§2) Antibacterial assays with all the peptides were done in 96-well microtiter plates against different Gram-positive, Gram-negative and resistant bacteria as described earlier.

[2] = tested on: K. pneumoniae (ATCC 27736); test: microbe, parasite or virus in culture; type: cell-based; details: ATCC 27736
Description: as §1, §2

[3] = tested on: P. aeruginosa (ATCC BAA-427); test: microbe, parasite or virus in culture; type: cell-based; details: ATCC BAA-427
Description: as §1, §2

[4] = tested on: Staphylococcus aureus (ATCC 25923); test: microbe, parasite or virus in culture; type: cell-based; details: ATCC 25923
Description: as §1, §2

[5] = tested on: Staphylococcus aureus (ATCC 29213); test: microbe, parasite or virus in culture; type: cell-based; details: ATCC 29213
Description: as §1, §2

[6] = tested on: Staphylococcus aureus (ATCC 1708 MRSA); test: microbe, parasite or virus in culture; details: ATCC 1708
Description: as §1, §2

[7] = tested on: Staphylococcus aureus (ATCC 33592 Gentamycin Resistant); test: microbe, parasite or virus in culture; details: ATCC 33592
Description: as §1, §2

[8] = tested on: Staphylococcus aureus (ATCC 700698 MRSA); test: microbe, parasite or virus in culture; details: ATCC 700698
Description: as §1, §2

[9] = tested on: Staphylococcus aureus (ATCC 700699 MRSA); test: microbe, parasite or virus in culture; details: ATCC 700699
Description: as §1, §2

[10] = tested on: Staphylococcus aureus (ATCC BAA-44 MRSA); test: microbe, parasite or virus in culture; details: ATCC BAA-44
Description: as §1, §2

[11] = tested on: E. coli (ATCC 25922); test: Antibacterial activity (MIC), liquid culture in 96-well microtiter plates; type: cell-based; details: means of three independent experiments each in duplicate ± SD, read-out: Minimum inhibitory conc. (MIC) against bacteria 11
Description: as §1, §2

[12] = tested on: human red blood cells (hRBCs); type: cell-based
Description: Cytotoxic activity of piscidin-1 and its designed analogs was examined by assaying the lysis of human red blood cells (hRBCs) and the viability of murine 3T3 cells in presence of these peptides. […] Introduction of D-lysine (dK)residues instead of threonine residues at 15th & 21st positions further reduced the haemolytic activity of piscidin-1 (Fig. 1A). Overall, haemolytic activity of these peptides against hRBCs followed the order piscidin-1 > T15K-piscidin-1 > T15dK-piscidin-1 > T15,21K-piscidin-1 > T15,21dK-piscidin-1. Viability of 3T3 cells as determined by MTT assay in the presence of these peptides followed the same trend as their haemolytic activity (Fig. 1B).
Haemolytic activity of the peptides against human red blood cells in PBS was performed by assaying the ability of the peptides to lyse the hRBCs[24][48]. For this purpose, fresh human red blood cells (hRBCs) were collected in the presence of an anti-coagulant from a healthy volunteer. After washing the blood three times with PBS haemolytic activity of the peptides were determined as reported previously. Methodology of our experiment with human blood was in accordance with relevant guidelines and regulations of CSIR-central drug research institute ethics committee and was approved by it with approval No. CDRI/IEC/2014/A5. Further, informed consent was obtained from the healthy volunteer before collection of blood as per the guideline of our Institutional ethics committee.

[13] = tested on: E. coli 0111:B4 LPS-administered mice; test: In vivo anti-LPS activity: survival of LPS-administered mice (septic shock); details: BALB/c mice, monitored 7 days; for survival of LPS-administered mice: n = 5
Description: Septic shock in BALB/c mice was induced by intraperitoneal (i.p.) injection of E. coli LPS (12 mg/kg) followed by i.p. injection of T15,21K-piscidin-1 (0.5 mg/Kg) or T15,21dK-piscidin-1 (1 mg/Kg) or polymyxin B (1 mg/Kg) ~5 min later. Mice treated with only saline was taken as control. Survival of the animals (n = 5) was monitored for 7 days (***p < 0.0001, log-rank test).
Polymyxin B was taken as the positive control and the experiments were performed as reported earlier[14][30][31].
In vivo studies, treat ment of Mice
Female BALB/c mice (National laboratory animal centre, central drug research institute,
Lucknow) we re given a s tandard laborato r y diet an d water ad libitum and housed under controlled
environmental conditions. The mice wer e approx imatel y 25 g each at the st art of experiments. All
the mice were divided into experimental groups for the administration of LPS and peptides. Mice
were treated with 12 m g/ kg E. coli 0111: B4 LPS i n presen ce and in absen ce of peptide in different
experimental groups. The mice treated with saline onl y, in absence of LP S were considered as
experimental controls. To study the efficacy of a peptide in neutralizing LPS-induced pro-
inflammatory responses in mice ~5 min post LPS treatment, the respective peptide was
administered i.p. at a site other than the one, used for LPS injection. […] Survival of mice was
monitored for 7 da ys. Survival of mice was also mo nitored following th e treatment of onl y p eptides
for investigating their toxic effects.

[14] = no LPS, BALB/c mice, data not shown

Row | Compound | Minimum inhibitory conc. (MIC) against bacteria 9 [1] [µM] | Minimum inhibitory conc. (MIC) against bacteria 10 [2] [µM] | Minimum inhibitory conc. (MIC) against bacteria 8 [3] [µM] | Minimum inhibitory conc. (MIC) against bacteria 1 [4] [µM] | Minimum inhibitory conc. (MIC) against bacteria 2 [5] [µM] | Minimum inhibitory conc. (MIC) against bacteria 7 [6] [µM] | Minimum inhibitory conc. (MIC) against bacteria 4 [7] [µM] | Minimum inhibitory conc. (MIC) against bacteria 6 [8] [µM] | Minimum inhibitory conc. (MIC) against bacteria 3 [9] [µM] | Minimum inhibitory conc. (MIC) against bacteria 5 [10] [µM] | MIC [11] [µM] | HC50, peptide concentration leading to 50% lysis of human RBC [12] [µM] | survival of LPS-administered mice ([13]; peptide 1.0 mg/Kg i.p. ~5 min after LPS 12.0 mg/Kg i.p.) [%] | mortality rate of LPS-administered mice ([13]; single dose 1.0 mg/kg i.p. after LPS 12 mg/kg) | survival of control mice treated only with peptide ([14]; 1.0 mg/kg) [%] | survival of LPS-administered mice ([13]; peptide 0.5 mg/Kg i.p. ~5 min after LPS 12.0 mg/Kg i.p.) [%] | mortality rate of LPS-administered mice ([13]; single dose 0.5 mg/kg i.p. after LPS 12 mg/kg) | survival of control mice treated only with peptide ([14]; 0.5 mg/kg) [%]
1 | CC[C@H](C)[C@H](NC(=O)CNC(=O)[C@H](CCCNC(=N)N)NC(=O)[C@H](Cc1ccccc1)NC(=O)[C@@H](NC(=O)[C@H](Cc1c[nH]cn1)NC(=O)[C@H](Cc1c[nH]cn1)NC(=O)[C@H](Cc1ccccc1)NC(=O)[C@@H](N)Cc1ccccc1)[C@@H](C)CC)C(=O)N[C@H](C(=O)N[C@@H](Cc1c[nH]cn1)C(=O)N[C@H](C(=O)NCC(=O)N[C@@H](CCCCN)C(=O)N[C@H](CCCCN)C(=O)N[C@H](C(=O)N[C@@H](Cc1c[nH]cn1)C(=O)N[C@@H](CCCNC(=N)N)C(=O)N[C@@H](CC(C)C)C(=O)N[C@H](C(=O)N[C@H](CCCCN)C(=O)NCC(N)=O)C(C)C)[C@@H](C)CC)C(C)C)C(C)C [T15,21dK Piscidin-1] (HELM PEPTIDE1{F.F.H.H.I.F.R.G.I.V.H.V.G.K.[dK].I.H.R.L.V.[dK].G.[am]}$$$$V2.0) | 9.0 ± 1.3 (≈ 23.6 µg/mL) | 5.0 ± 0.7 (≈ 13.1 µg/mL) | 9.0 ± 1.3 (≈ 23.6 µg/mL) | 5.0 ± 0.7 (≈ 13.1 µg/mL) | 5.0 ± 0.7 (≈ 13.1 µg/mL) | 5.0 ± 0.7 (≈ 13.1 µg/mL) | 5.0 ± 0.7 (≈ 13.1 µg/mL) | 10.0 ± 1.4 (≈ 26.3 µg/mL) | 10.0 ± 1.4 (≈ 26.3 µg/mL) | 5.0 ± 0.7 (≈ 13.1 µg/mL) | 5.0 (≈ 13.1 µg/mL) | 500 | 100 | zero | 100 | – | – | –
2 | H-FFHHIFRGIVHVGKKIHRLVKG-NH2 [T15,21K Piscidin-1] | 5.0 ± 0.7 | 3.0 ± 0.4 | 5.0 ± 0.7 | 1.25 ± 0.3 | 2.5 ± 0.4 | 1.25 ± 0.3 | 2.5 ± 0.4 | 2.5 ± 0.4 | 2.5 ± 0.4 | 1.25 ± 0.3 | 2.0 | 200 | – | – | – | 100 | zero | 100
